Experimental data from patent publication US10993933B2, “Oral dosage forms of bendamustine” (ASTELLAS DEUTSCHLAND GMBH, priority 2010, dated 2021).
Structures can show the parent of a compound that is named as a salt.

Legend:
[1] = B6D2F1-mice, absorption from the gastro-intestinal tract; cited from earlier work
[2] = Solubility of bendamustine hydrochloride in water and organic solvents; type: physicochemical
Source text: Therefore it is not surprising that the oral bendamustine compositions, as investigated by Preiss et al. and Weber gave rise to relatively poor bioavailability results and a large inter-individual variability.

[3] = cited from earlier work
[4] = Bendamustine hydrochloride solubility in carriers (HPLC of supernatant); type: physicochemical
Description: Due to the necessity to determine if part of the bendamustine hydrochloride added to the vehicle is dissolved, in order to verify a possible degradation, an analytical procedure, from sample preparation to its analysis, was developed.
Essentially, it consisted in the preparation of a supersaturated solution of bendamustine hydrochloride in the oil: the minimum amount of bendamustine hydrochloride suitable to generate sedimentation of solid particle on the bottom of the vessel was added to the oil warmed at 40° C.; this solution was electromagnetically stirred for several days (about 4) at room temperature and then centrifuged at 3000 rpm for 15 minutes. The supernatant was analysed by HPLC versus a solution of bendamustine hydrochloride working standard (0,551 mg/ml).
Essentially, it consisted in the preparation of a supersaturated solution of bendamustine hydrochloride in the vehicle: the minimum amount of bendamustine hydrochloride suitable to generate sedimentation of solid particle on the bottom of the vessel was added to the oil heated to about 5° C. above its melting point; this solution was kept in static condition at this temperature overnight, to allow sedimentation on the bottom. The supernatant was analysed by HPLC versus a solution of API working standard (0.551 mg/ml).
In table 21.a below, the results of the analysis are reported expressed as mg of bendamustine hydrochloride completely dissolved in about 1 g of solution of the carrier selected.
Further samples for the solubility evaluation were prepared by adding, under stirring, a quantity of active ingredient (API) suitable to generate a phase segregation to a determined amount of each carrier. The samples were prepared at a temperature slightly above the melting point of each carrier (except for liquid vehicles) and kept at this temperature for about 5 hrs (estimated manufacturing process time). Where applicable, each sample was centrifuged to accelerate phase segregation; an amount of the supernatant, corresponding to the filling weight of a capsule (about 600 mg), was withdrawn and evaluated for assay to determine the amount of API actually dissolved.
Each solubility value is related to a specific temperature, corresponding to the value set for the filling into capsules (see table 14).

[5] = carrier CREMOPHOR A6 (Semisolid at room temperature), suspension weight 1015.3 mg
[6] = carrier CREMOPHOR A25 (Semisolid at room temperature), suspension weight 995.6 mg
[7] = carrier CREMOPHOR EL (Liquid at room temperature), suspension weight 1026.8 mg
[8] = carrier CREMOPHOR RH40 (Semisolid at room temperature), suspension weight 1000.4 mg
[9] = carrier LABRAFAC PG (Liquid at room temperature), suspension weight 1961.5 mg
[10] = carrier LABRAFIL M1944 CS (Liquid at room temperature), suspension weight 1011.7 mg
[11] = carrier LABRAFIL M2125 (Liquid at room temperature), suspension weight 765.2 mg
[12] = carrier LAUROGLYCOL 90 (Liquid at room temperature), suspension weight 993.9 mg
[13] = carrier LAUROGLYCOL FCC (Liquid at room temperature), suspension weight 1934.8 mg
[14] = carrier MIGLYOL 810 (Liquid at room temperature), suspension weight 602.8 mg
[15] = carrier MIGLYOL 812 (Liquid at room temperature), suspension weight 1044.1 mg
[16] = carrier MIGLYOL 829 (Liquid at room temperature), suspension weight 1865.0 mg
[17] = carrier MIGLYOL 840 (Liquid at room temperature), suspension weight 599.9 mg
[18] = carrier PLUROL oleique CC497 (Liquid at room temperature), suspension weight 1005.8 mg
[19] = carrier PLURONIC L44 NF INH (Liquid at room temperature), suspension weight 1987.1 mg
[20] = carrier SOFTIGEN 701 (Liquid at room temperature), suspension weight 1079.0 mg
[21] = carrier SOFTISAN 645 (Liquid at room temperature), suspension weight 1014.0 mg
[22] = carrier TRANSCUTOL HP (Liquid at room temperature), suspension weight 1003.1 mg

Structure (SMILES): Cn1c(CCCC(=O)O)nc2cc(N(CCCl)CCCl)ccc21 [bendamustine hydrochloride]
- bioavailability [1]: about 40%
- solubility in a range of organic solvents [2]: slightly or very slightly soluble
- solubility in ethanol and methanol [2]: good solubility
- solubility in water ([2]; pH of 2.0): sparingly soluble
- mean oral bioavailability ([3]; 7 patients, oral capsules vs intravenous, 4.2-5.5 mg/kg): 57%
- time to maximal plasma levels after oral administration ([3]; patients, oral capsules of 25 mg, 250-350 mg): ≤ 1 h
- Solubility ([4]; carrier BRIJ C2 (Semisolid), T 45 ° C.): 0.004 mg API/mg Solution
- Solubility ([4]; carrier BRIJ L4 (Liquid), T 25 ° C.): 0.008 mg API/mg Solution
- Solubility ([4]; carrier BRIJ L23 (Solid), T 45 ° C.): 0.004 mg API/mg Solution
- Solubility ([4]; carrier BRIJ O10 (Semisolid), T 45 ° C.): 0.007 mg API/mg Solution
- Solubility ([4]; carrier BRIJ O20 (Semisolid), T 45 ° C.): 0.006 mg API/mg Solution
- Solubility ([4]; carrier BRIJ S10 (Solid), T 42 ° C.): 0.003 mg API/mg Solution
- Solubility ([4]; carrier BRIJ S20 (Solid), T 50 ° C.): 0.008 mg API/mg Solution
- Solubility ([4]; carrier BRIJ S721 (Solid), T 45 ° C.): 0.004 mg API/mg Solution
- % API [4, 5]: 0.00%
- API recovered [4, 5]: 0.00 mg
- % API [4, 6]: 0.21%
- API recovered [4, 6]: 2.10 mg
- % API [4, 7]: 0.5%
- API recovered [4, 7]: 5.13 mg
- % API [4, 8]: 0.77%
- API recovered [4, 8]: 7.72 mg
- Solubility ([4]; carrier GELUCIRE 44/14 (Semisolid), T 45 ° C.): 0.004 mg API/mg Solution
- Solubility ([4]; carrier GLYCEROX HE (Liquid), T 25 ° C.): 0.005 mg API/mg Solution
- % API [4, 9]: 0.001%
- API recovered [4, 9]: 0.01 mg
- % API [4, 10]: 0.04%
- API recovered [4, 10]: 0.38 mg
- % API [4, 11]: 0.02%
- API recovered [4, 11]: 0.17 mg
- % API [4, 12]: 0.06%
- API recovered [4, 12]: 0.61 mg
- % API [4, 13]: 0.02%
- API recovered [4, 13]: 0.33 mg
- % API [4, 14]: 0.01%
- API recovered [4, 14]: 0.04 mg
- % API [4, 15]: 0.003%
- API recovered [4, 15]: 0.03 mg
- % API [4, 16]: 0.001%
- API recovered [4, 16]: 0.03 mg
- % API [4, 17]: 0.01%
- API recovered [4, 17]: 0.06 mg
- Solubility ([4]; carrier MIRJ S8 (Semisolid), T 42 ° C.): 0.010 mg API/mg Solution
- Solubility ([4]; carrier MIRJ S40 (Solid), T 50 ° C.): 0.005 mg API/mg Solution
- Solubility ([4]; carrier MIRJ S100 (Semisolid), T 50 ° C.): 0.009 mg API/mg Solution
- % API [4, 18]: 0.21%
- API recovered [4, 18]: 2.12 mg
- Solubility ([4]; carrier PLURONIC 103 (Semisolid), T 45 ° C.): 0.002 mg API/mg Solution
- Solubility ([4]; carrier PLURONIC F108 (Solid), T 70 ° C.): 0.006 mg API/mg Solution
- Solubility ([4]; carrier PLURONIC L35 (Liquid), T 25 ° C.): 0.000 mg API/mg Solution
- Solubility ([4]; carrier PLURONIC L43 (Liquid), T 25 ° C.): 0.000 mg API/mg Solution
- % API [4, 19]: 0.18%
- API recovered [4, 19]: 3.64 mg
- Solubility ([4]; carrier PLURONIC L64 (Liquid), T 25 ° C.): 0.000 mg API/mg Solution
- Solubility ([4]; carrier PLURONIC P85 (Semisolid), T 50 ° C.): 0.002 mg API/mg Solution
- Solubility ([4]; carrier PLURONIC P105 (Semisolid), T 50 ° C.): 0.002 mg API/mg Solution
- % API [4, 20]: 0.29%
- API recovered [4, 20]: 5.42 mg
- % API [4, 21]: 0.16%
- API recovered [4, 21]: 1.60 mg
- Solubility ([4]; carrier SOLUTOL HS15 (Semisolid), T 35 ° C.): 0.007 mg API/mg Solution
- Solubility ([4]; carrier SPEZIOL TPGS (Semisolid), T 45 ° C.): 0.002 mg API/mg Solution
- % API [4, 22]: 1.00%
- API recovered [4, 22]: 10.01 mg
- Solubility ([4]; carrier TWEEN 20 (Liquid), T 25 ° C.): 0.008 mg API/mg Solution
- Solubility ([4]; carrier TWEEN 40 (Liquid), T 25 ° C.): 0.007 mg API/mg Solution
- Solubility ([4]; carrier TWEEN 61 (Semisolid), T 45 ° C.): 0.019 mg API/mg Solution
- Solubility ([4]; carrier TWEEN 65 (Liquid), T 45 ° C.): 0.007 mg API/mg Solution
- Solubility ([4]; carrier TWEEN 81 (Liquid), T 25 ° C.): 0.004 mg API/mg Solution
- bendamustine hydrochloride recovered in a supersaturated solution in liquid or semisolid oily vehicles ([4]; selected carriers): < 1%
